Assays:
[1] = system: postural and kinetic deficit compensation in lesioned cat; conditions: both after IV 28 mg/kg first three days post-lesion and after (IO) 28 mg/kg first 30 days postoperative, vs untreated lesioned animals; cited from earlier work
[2] = system: unilateral vestibular neurectomy model in the cat; test: Kinetic equilibrium functioning, rotating beam test, Example 1; type: in vivo; conditions: for compensation for kinetic equilibrium compared to control animals / return to maximum performance (MP): rotating beam, 15 mg/kg/day IV 3 days then 30 mg/kg/day oral
Experimental: The cats undergo a unilateral vestibular neurectomy on the left side.
Surgery is performed using a surgical microscope, under rigorously aseptic conditions, according to a translabyrinthine approach. After incision of the tissues located behind the left auricle of the animal, an opening is made in the tympanic bulla using a diamond drill to give access to the inner ear. The labyrinth cavity is approached by an opening created above the oval window. This precisely-made opening exposes cranial […] which are sectioned at the postganglionic level. The internal auditory meatus is obturated with a cicatrizing gelatin sponge and the surface tissues are restitched. The animals are given analgesics for 48 hours and antibiotics for five days postoperative.
The animals are divided into four groups comprising three treatment groups and one untreated control group, as follows: • control group (five cats), untreated after vestibular lesion but receiving a placebo, • experimental group one (four cats), treated with the racemic compound (acetyl-DL-leucine), • experimental group two (four cats), treated with the first enantiomer (acetyl-L-leucine), • experimental group three (four cats), treated with the second enantiomer (acetyl-D-leucine).
Pharmacological treatments for experimental groups one, two and three begin on the day of the lesion and continue until complete recovery (45 days for untreated control animals). In these three lesioned groups, treatment is administered by intravenous (IV) route during the first three days post-lesion and is followed by oral route (OR) treatment until recovery is complete. The doses administered are 30 mg/kg/day IV then 60 mg/kg/day OR for the racemate, and 15 mg/kg/day IV then 30 mg/kg/day OR for each of the two enantiomers. For the oral route, the substance is mixed with food; for the IV route, injection takes place after local anesthesia.
The rotating beam test, as described by Xerri and Lacour (Xerri C, Lacour M: Compensation for postural and kinetic deficits following unilateral vestibular neurectomy in the cat. Role of sensory-motor activity [Compensation des déficits posturaux et cinétiqtues après neurectomie vestibulaire unilatérale chez le chat. Rôle de l'activité sensori-motrice], Acta Otolaryngol (Stockh) (1980) [in French], 90, 414-424) makes it possible to quantify kinetic equilibrium functioning deficits and recovery as a function of postoperative time.
Two compartments are connected by a cylindrical beam 3 m in length and 12 cm in diameter, placed 1.2 m above the floor. The beam can turn around its central axis with linear tangential velocities varying from 0 m/min to 37 m/min. Before the unilateral vestibular lesion (preoperative period), the cats are conditioned to move along this beam. Their maximum performance (MP), which corresponds to the highest beam rotation velocity not causing the animal to fall, is determined for four consecutive tests. In general, eight to 12 daily training sessions of approximately one hour are adequate for the animal to reach its MP. Inter-animal MP variations are relatively small (extreme values recorded: 27 m/min to 37 m/min; mean: 33 m/min; standard deviation: 2.08 m/min). For each cat, MP values obtained following unilateral vestibular neurectomy are expressed as a percentage of MP recorded at the end of training during the preoperative period.

[3] = system: unilateral vestibular neurectomy model in the cat; test: Support polygon surface area (postural syndrome), Example 1; type: in vivo; conditions: for return of support polygon surface area to normal / support polygon surface area compared to control animals: 15 mg/kg/day IV 3 days then 30 mg/kg/day oral; for support polygon surface area compared to control animals: post-lesion (D isomer: two days post-lesion and evolution)
Experimental: The cats undergo a unilateral vestibular neurectomy on the left side. Surgery is performed using a surgical microscope, under rigorously aseptic conditions, according to a translabyrinthine approach. After incision of the tissues located behind the left auricle of the animal, an opening is made in the tympanic bulla using a diamond drill to give access to the inner ear. The labyrinth cavity is approached by an opening created above the oval window. This precisely-made opening exposes cranial […] which are sectioned at the postganglionic level. The internal auditory meatus is obturated with a cicatrizing gelatin sponge and the surface tissues are restitched. The animals are given analgesics for 48 hours and antibiotics for five days postoperative. The animals are divided into four groups comprising three treatment groups and one untreated control group, as follows: • control group (five cats), untreated after vestibular lesion but receiving a placebo, • experimental group one (four cats), treated with the racemic compound (acetyl-DL-leucine), • experimental group two (four cats), treated with the first enantiomer (acetyl-L-leucine), • experimental group three (four cats), treated with the second enantiomer (acetyl-D-leucine). Pharmacological treatments for experimental groups one, two and three begin on the day of the lesion and continue until complete recovery (45 days for untreated control animals). In these three lesioned groups, treatment is administered by intravenous (IV) route during the first three days post-lesion and is followed by oral route (OR) treatment until recovery is complete. The doses administered are 30 mg/kg/day IV then 60 mg/kg/day OR for the racemate, and 15 mg/kg/day IV then 30 mg/kg/day OR for each of the two enantiomers. For the oral route, the substance is mixed with food; for the IV route, injection takes place after local anesthesia. Support polygon surface area is a good indicator of the degree of postural stability in the cat. In general, it is quite small in the normal animal (roughly 50 cm^2). It increases considerably, by four to eight times, after a unilateral vestibular lesion. This increase in polygon surface area reflects tonic asymmetries in the extensor and flexor muscles of the fore and hind feet and the loss of certain static equilibrium reflexes (Magnus reflexes, for example). Thus, postoperative evolution of this indicator is a good measure of the animal's static equilibrium capacity. In addition, this indicator has prognostic value with respect to dynamic equilibrium performance, as measured by the rotating beam test. Support polygon surface area measurements are taken with the animal in an upright position on all four legs, at rest, using an automated three-dimensional movement analysis system with virtual markers (Codamotion optoelectronic system coupled with a SIMI alignment device). Surface area measurements (in cm^2) taken during the post-lesion period are standardized with respect to pre-lesion values. Thus, each animal acts as its own control (unit equivalent). This method enables direct between-group comparisons and within-group averaging.

[4] = system: unilateral vestibular neurectomy model in the cat; test: Post-lesion horizontal spontaneous vestibular nystagmus, Example 1; type: in vivo; conditions: for nystagmus disappearing / nystagmus frequency compared to control animals: 15 mg/kg/day IV 3 days then 30 mg/kg/day oral
Experimental: The cats undergo a unilateral vestibular neurectomy on the left side. Surgery is performed using a surgical microscope, under rigorously aseptic conditions, according to a translabyrinthine approach. After incision of the tissues located behind the left auricle of the animal, an opening is made in the tympanic bulla using a diamond drill to give access to the inner ear. The labyrinth cavity is approached by an opening created above the oval window. This precisely-made opening exposes cranial […] which are sectioned at the postganglionic level. The internal auditory meatus is obturated with a cicatrizing gelatin sponge and the surface tissues are restitched. The animals are given analgesics for 48 hours and antibiotics for five days postoperative. The animals are divided into four groups comprising three treatment groups and one untreated control group, as follows: • control group (five cats), untreated after vestibular lesion but receiving a placebo, • experimental group one (four cats), treated with the racemic compound (acetyl-DL-leucine), • experimental group two (four cats), treated with the first enantiomer (acetyl-L-leucine), • experimental group three (four cats), treated with the second enantiomer (acetyl-D-leucine). Pharmacological treatments for experimental groups one, two and three begin on the day of the lesion and continue until complete recovery (45 days for untreated control animals). In these three lesioned groups, treatment is administered by intravenous (IV) route during the first three days post-lesion and is followed by oral route (OR) treatment until recovery is complete. The doses administered are 30 mg/kg/day IV then 60 mg/kg/day OR for the racemate, and 15 mg/kg/day IV then 30 mg/kg/day OR for each of the two enantiomers. For the oral route, the substance is mixed with food; for the IV route, injection takes place after local anesthesia. Recovery of oculomotor functioning is quantified by measuring post-operative regression of spontaneous vestibular nystagmus to light. This nystagmus is recorded in the horizontal plane by a video camera system that records eye movements (SIMI system). Nystagmus frequency is determined by the number of beats per unit time (10 seconds). Recordings are made daily until spontaneous nystagmus disappears.

[5] = system: unilateral vestibular neurectomy model; test: Overall functional restoration in animals having undergone unilateral vestibular neurectomy; type: in vivo, cat; conditions: present experimental model
Text: The selected experimental model and protocol are recognized in the field of neurosensory research as targeting the study of disorders associated with vertigo crises. The cats undergo a unilateral vestibular neurectomy on the left side. The animals are divided into four groups comprising three treatment groups and one untreated control group, as follows: • control group (five cats), untreated after vestibular lesion but receiving a placebo, • experimental group one (four cats), treated with the racemic compound (acetyl-DL-leucine), • experimental group two (four cats), treated with the first enantiomer (acetyl-L-leucine), • experimental group three (four cats), treated with the second enantiomer (acetyl-D-leucine). Pharmacological treatments for experimental groups one, two and three begin on the day of the lesion and continue until complete recovery (45 days for untreated control animals). In these three lesioned groups, treatment is administered by intravenous (IV) route during the first three days post-lesion and is followed by oral route (OR) treatment until recovery is complete. The doses administered are 30 mg/kg/day IV then 60 mg/kg/day OR for the racemate, and 15 mg/kg/day IV then 30 mg/kg/day OR for each of the two enantiomers. For the oral route, the substance is mixed with food; for the IV route, injection takes place after local anesthesia.

[6] = system: unilateral vestibular neurectomy in the cat; test: Compensation of vestibular deficits (support polygon), Example 2; type: in vivo; conditions: IV during first three days post-lesion
Experimental: The experiment involves 18 cats from the breeder IFA-CREDO (France). The cats undergo a unilateral vestibular neurectomy of the left side, as in example 1. The animals are divided into three groups comprising one group treated with racemic coumpound (acetyl-DL-leucine) (groups 1) and two treated with acetyl-L-leucine (groups 2 and 3), as follows: • experimental group one (six cats), treated after vestibular lesion with the racemic compound (acetyl-DL-leucine) at 30 mg/kg per day, • experimental group two (six cats), treated after vestibular lesion with the L enantiomer (acetyl-L-leucine) at 15 mg/kg per day, • experimental group three (six cats), treated after vestibular lesion with the L enantiomer (acetyl-L-leucine) at 7.5 mg/kg per day, Pharmacological treatments for experimental groups 1 to 3 begin on the day of the lesion. Treatment is administered by intravenous (IV) route during the first three days post-lesion.

[7] = cat, 15 mg/kg/day IV then 30 mg/kg/day oral
[8] = acetyl-L-leucine used in a 1/2 dose of the racemate

Compound | shortening of the vestibular compensation time constant [1] [%] | beneficial effect on kinetic equilibrium parameter [2, 7] | compensation for kinetic equilibrium compared to control animals ([2]; cat) | return to maximum performance (MP) ([2]; cat) [days post-lesion] | return of support polygon surface area to normal ([3]; cat) [days post-lesion] | support polygon surface area compared to control animals ([3]; cat) | beneficial effect on support polygon parameter [3, 7] | nystagmus disappearing ([4]; cat) | nystagmus frequency compared to control animals ([4]; cat) | beneficial effect on nystagmus parameter [4, 7] | improvement / restorative activity compared to placebo [5] | restoration of postural, locomotor and oculomotor functions deteriorated by a vestibular lesion [6] | activity on compensation for kinetic equilibrium relative to acetyl-DL-leucine [2, 8] | activity on compensation for postural deficits relative to acetyl-DL-leucine [3, 8] | activity on compensation for ocular nystagmus relative to acetyl-DL-leucine [4, 8]
CC(=O)NC(CC(C)C)C(=O)O (racemic) [acetyl-DL-leucine] | 50 |  |  |  |  |  |  |  |  |  |  |  |  |  | 
CC(=O)N[C@H](CC(C)C)C(=O)O [acetyl-D-leucine] |  | does not have any beneficial effect | identical to that observed in the control animals | 42 | 40 | identical to that observed in the control animals | does not have any beneficial effect | eight | identical to that of nystagmus observed in the control animals | does not have any beneficial effect | does not provide any improvement compared to a placebo |  |  |  | 
CC(=O)N[C@@H](CC(C)C)C(=O)O [acetyl-L-leucine] |  |  | much more rapid than in the control animals | 18 | 16 | significantly smaller |  | four | lower |  | restorative activity is only provided by the acetyl-L-leucine isomer | efficiently restore | greater than or equal to that of acetyl-DL-leucine | greater than or equal to that of acetyl-DL-leucine | greater than or equal to that of acetyl-DL-leucine
